{
  "source": "PubChem BioAssay (NCI)",
  "experiment_in_all_cases": "inhibition of tumour cell growth, NCI panel, 48 h",
  "key": {"TK-10 renal": {"tested_on": "TK-10 renal"}, "MALME-3M melanoma": {"tested_on": "MALME-3M melanoma"}, "UACC-257 melanoma": {"tested_on": "UACC-257 melanoma"}, "NCI-H23 lung": {"tested_on": "NCI-H23 lung"}, "HOP-62 NSCLC": {"tested_on": "HOP-62 NSCLC"}, "HOP-92 NSCLC": {"tested_on": "HOP-92 NSCLC"}, "SW-620 colon": {"tested_on": "SW-620 colon"}, "786-0 renal": {"tested_on": "786-0 renal"}, "OVCAR-5 ovarian": {"tested_on": "OVCAR-5 ovarian"}, "DU-145 prostate": {"tested_on": "DU-145 prostate"}},
  "note": "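The compound was tested at five concentrations on cells cultured in 96-well plates, with a 48-hour exposure period. The concentration for 50% growth inhibition is given as GI50. TGI denotes the concentration required for complete inhibition of growth.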",
  "data": [
    {"smiles": "Clc1ccccc1-c1nc(-c2ccncc2)no1", "values": [
      {"measurement": "TGI", "setting": "TK-10 renal", "value": "> 100", "unit": "µM"},
      {"measurement": "TGI", "setting": "MALME-3M melanoma", "value": "> 100", "unit": "µM"},
      {"measurement": "TGI", "setting": "UACC-257 melanoma", "value": "> 100", "unit": "µM"},
      {"measurement": "TGI", "setting": "NCI-H23 lung", "value": "> 100", "unit": "µM"},
      {"measurement": "TGI", "setting": "HOP-62 NSCLC", "value": "> 100", "unit": "µM"},
      {"measurement": "TGI", "setting": "HOP-92 NSCLC", "value": "> 100", "unit": "µM"},
      {"measurement": "TGI", "setting": "SW-620 colon", "value": "> 100", "unit": "µM"},
      {"measurement": "TGI", "setting": "786-0 renal", "value": "> 100", "unit": "µM"},
      {"measurement": "TGI", "setting": "OVCAR-5 ovarian", "value": "> 100", "unit": "µM"},
      {"measurement": "TGI", "setting": "DU-145 prostate", "value": "> 100", "unit": "µM"}
    ]},
    {"smiles": "CNS(=O)(=O)c1ccccc1C(=N)c1ccccc1", "values": [
      {"measurement": "TGI", "setting": "TK-10 renal", "value": "> 100", "unit": "µM"},
      {"measurement": "TGI", "setting": "MALME-3M melanoma", "value": "> 100", "unit": "µM"},
      {"measurement": "TGI", "setting": "NCI-H23 lung", "value": "> 100", "unit": "µM"},
      {"measurement": "TGI", "setting": "HOP-62 NSCLC", "value": "> 100", "unit": "µM"},
      {"measurement": "TGI", "setting": "HOP-92 NSCLC", "value": "> 100", "unit": "µM"},
      {"measurement": "TGI", "setting": "SW-620 colon", "value": "> 100", "unit": "µM"},
      {"measurement": "TGI", "setting": "786-0 renal", "value": "> 100", "unit": "µM"},
      {"measurement": "TGI", "setting": "OVCAR-5 ovarian", "value": "> 100", "unit": "µM"},
      {"measurement": "TGI", "setting": "DU-145 prostate", "value": "> 100", "unit": "µM"}
    ]},
    {"smiles": "O=[N+]([O-])c1cccc(/C=C/c2ccccn2)c1", "values": [
      {"measurement": "GI50", "setting": "MALME-3M melanoma", "value": 37.5, "unit": "µM"},
      {"measurement": "TGI", "setting": "MALME-3M melanoma", "value": "> 100", "unit": "µM"},
      {"measurement": "GI50", "setting": "UACC-257 melanoma", "value": "> 100", "unit": "µM"},
      {"measurement": "TGI", "setting": "UACC-257 melanoma", "value": "> 100", "unit": "µM"},
      {"measurement": "GI50", "setting": "NCI-H23 lung", "value": 30, "unit": "µM"},
      {"measurement": "TGI", "setting": "NCI-H23 lung", "value": "> 100", "unit": "µM"},
      {"measurement": "GI50", "setting": "HOP-62 NSCLC", "value": 40.7, "unit": "µM"},
      {"measurement": "TGI", "setting": "HOP-62 NSCLC", "value": "> 100", "unit": "µM"},
      {"measurement": "GI50", "setting": "HOP-92 NSCLC", "value": 24.3, "unit": "µM"},
      {"measurement": "TGI", "setting": "HOP-92 NSCLC", "value": "> 100", "unit": "µM"},
      {"measurement": "GI50", "setting": "SW-620 colon", "value": 5.95, "unit": "µM"},
      {"measurement": "TGI", "setting": "SW-620 colon", "value": "> 100", "unit": "µM"},
      {"measurement": "GI50", "setting": "786-0 renal", "value": 36.7, "unit": "µM"},
      {"measurement": "TGI", "setting": "786-0 renal", "value": "> 100", "unit": "µM"},
      {"measurement": "GI50", "setting": "OVCAR-5 ovarian", "value": 49.7, "unit": "µM"},
      {"measurement": "TGI", "setting": "OVCAR-5 ovarian", "value": "> 100", "unit": "µM"},
      {"measurement": "GI50", "setting": "DU-145 prostate", "value": 35.6, "unit": "µM"},
      {"measurement": "TGI", "setting": "DU-145 prostate", "value": "> 100", "unit": "µM"}
    ]},
    {"smiles": "COc1cc(CNc2nc3cc(N)cc(N)c3nc2-c2ccccc2)cc(OC)c1OC", "values": [
      {"measurement": "GI50", "setting": "TK-10 renal", "value": 6.25, "unit": "µM"},
      {"measurement": "TGI", "setting": "TK-10 renal", "value": 17.9, "unit": "µM"},
      {"measurement": "GI50", "setting": "UACC-257 melanoma", "value": 3.45, "unit": "µM"},
      {"measurement": "TGI", "setting": "UACC-257 melanoma", "value": 10.8, "unit": "µM"},
      {"measurement": "GI50", "setting": "NCI-H23 lung", "value": 8.64, "unit": "µM"},
      {"measurement": "TGI", "setting": "NCI-H23 lung", "value": 17, "unit": "µM"},
      {"measurement": "GI50", "setting": "HOP-62 NSCLC", "value": 17.1, "unit": "µM"},
      {"measurement": "TGI", "setting": "HOP-62 NSCLC", "value": "> 50", "unit": "µM"},
      {"measurement": "GI50", "setting": "HOP-92 NSCLC", "value": 1.21, "unit": "µM"},
      {"measurement": "TGI", "setting": "HOP-92 NSCLC", "value": 3.12, "unit": "µM"},
      {"measurement": "GI50", "setting": "SW-620 colon", "value": 1.54, "unit": "µM"},
      {"measurement": "TGI", "setting": "SW-620 colon", "value": 4.51, "unit": "µM"},
      {"measurement": "GI50", "setting": "786-0 renal", "value": 15.6, "unit": "µM"},
      {"measurement": "TGI", "setting": "786-0 renal", "value": "> 50", "unit": "µM"},
      {"measurement": "GI50", "setting": "OVCAR-5 ovarian", "value": 21.5, "unit": "µM"},
      {"measurement": "TGI", "setting": "OVCAR-5 ovarian", "value": "> 50", "unit": "µM"},
      {"measurement": "GI50", "setting": "DU-145 prostate", "value": 5.24, "unit": "µM"},
      {"measurement": "TGI", "setting": "DU-145 prostate", "value": 20, "unit": "µM"}
    ]},
    {"smiles": "CN(C)c1ccc(/C=C/c2ccnc3ccc4ccccc4c23)cc1", "values": [
      {"measurement": "TGI", "setting": "TK-10 renal", "value": 49.9, "unit": "µM"},
      {"measurement": "TGI", "setting": "MALME-3M melanoma", "value": 58.5, "unit": "µM"},
      {"measurement": "TGI", "setting": "UACC-257 melanoma", "value": "> 100", "unit": "µM"},
      {"measurement": "TGI", "setting": "NCI-H23 lung", "value": "> 100", "unit": "µM"},
      {"measurement": "TGI", "setting": "HOP-62 NSCLC", "value": "> 100", "unit": "µM"},
      {"measurement": "TGI", "setting": "HOP-92 NSCLC", "value": "> 100", "unit": "µM"},
      {"measurement": "TGI", "setting": "SW-620 colon", "value": "> 100", "unit": "µM"},
      {"measurement": "TGI", "setting": "786-0 renal", "value": "> 100", "unit": "µM"},
      {"measurement": "TGI", "setting": "DU-145 prostate", "value": "> 100", "unit": "µM"}
    ]}
  ]
}
